Assay results from PMC6749314, “Development of the Tumor-Specific Antigen-Derived Synthetic Peptides as Potential Candidates for Targeting Breast and Other Possible Human Carcinomas” (Molecules, 2019).
Like-named read-outs stand apart in the source and are kept apart here. Each block holds one substance with its values, some of them ahead of it.

Experiments:
[1] = tested on: breast carcinoma xenografts; details: radiolabeled KCCYSL peptides, ref [8],[19]; cited from earlier work
From the text: Several small peptide molecules have been developed in recent years for targeting HER2-positive breast cancer. For example, a 6-amino-acid containing peptide, KCCYSL, was discovered by the phage display method after in vitro selection with a recombinant ERBB2 extracellular domain. The KCCYSL peptide, derivatized with different metal chelators (i.e., DOTA, NOTA, CB-TE2A, and DAP) and radiolabeled with radionuclide metal ions (e.g., ^111In, ^64Cu, ^99mTc), has been successfully used for in vivo imaging of HER2 overexpressing tumor models. The tumor cell binding affinity (Kd) of KCCYSL for ...

[2] = biological target: human epidermal growth factor receptor 2 (HER2) (human (endogenous in SKBR3, MCF7, T47D)) (UniProt P04626); test: radioligand binding; saturation binding of 99mTc-labeled peptide (0.1-30 nM) to ~300,000 MCF7 cells in low-serum media, 60 min, room temperature; non-specific binding with ~200-fold molar excess of unlabeled peptide; nonlinear regression
[3] = biological target: human epidermal growth factor receptor 2 (HER2) (human (endogenous in SKBR3, MCF7, T47D)) (UniProt P04626); test: radioligand binding; saturation binding of 99mTc-labeled peptide (0.1-30 nM) to ~300,000 T47D cells in low-serum media, 60 min, room temperature; non-specific binding with ~200-fold molar excess of unlabeled peptide; nonlinear regression
[4] = tested on: MDA-MB-231 breast xenografts; test: In vivo tumor targeting, MDA-MB-231 xenografts (negative control); details: nude mice, HER2-/MUC1-negative MDA-MB-231 xenografts, mean ± SD
T47D tumor xenografts = details: for tumor uptake: nude mice, mean ± SD
Description: (§3) In vivo biodistribution studies were performed on healthy Balb/c mice (n = 3–5 in each group, body mass 19–22 g) at 1 and 4 h after i.v. injection of the HPLC-purified radiopeptide (100 μL, 10–15 μCi, total peptide dose ~10 ng) via the lateral tail vein as described previously [54]. Mice were euthanized by cervical dislocation at specified times, the selected tissues/organs were removed, and radioactivity was measured in a γ-counter. Uptake of radioactivity in the tissues and organs was expressed as the percent injected dose per gram (% ID/g) of tissue/organ, which was calculated by comparison with standard solutions representing 10% of the injected dose per animal. For the clearance studies, radioactivity in the urine with bladder is expressed as the percent of the injected dose per organ (% ID/organ).
(§4) Approximately 7 million HER2-positive SKBR3 cells and MUC1-positive MCF7 and T47D breast tumor xenografts were injected subcutaneously into a group of nude female mice and allowed to grow for 4 to 6 weeks. After sufficient growth of tumors, the animals were sacrificed and the uptake of ^99mTc-HER2 and ^99mTc-MUC1 by the tumors and other major organs was determined by biodistribution experiments, as described above.

[5] = tested on: HER2-positive SKBR3 breast cancer cell line; test: In vitro tumor cell binding (saturation, Kd); design: species or system human
Description: (§1) The cell-binding studies of ^99mTc-labeled HER2 and MUC1 peptides into respective HER2 and MUC1-positive human breast cancer cell lines (American Type Culture Collection, Rockville, MD, USA) was performed according to the method described previously. In brief, ~300,000 cells (in 0.3 mL low-serum media) were incubated with various amounts of radiopeptides, ranging between 0.1 and 30 nM of peptides (prepared from the serial dilutions of HPLC-purified radiopeptides), in duplicate for 60 min at room temperature. Incubation was terminated by dilution with cold saline (0.3 mL) and the cells were pelleted by centrifugation. The cell-pellets was then rapidly washed with cold saline to remove any unbound peptide and centrifuged to collect supernatants. Radioactivity in the cell-pellet and the washings was measured in a γ-counter. Non-specific binding was determined in the presence of ~200-fold molar excess of unlabeled peptide. Specific binding was calculated by subtracting the non-specifically bound radioactivity from that of the total binding. The dissociation constant (Kd) was calculated using a plot of specific cell-bound radioactivity versus increasing concentrations of the radiopeptide using a nonlinear regression analysis program (GraphPad Prism Software Inc., San Diego, CA, USA).

[6] = tested on: T47D breast cancer cell line; test: In vitro tumor cell binding (saturation, Kd); design: species or system human; details: for Kd: T47D, ~300,000 cells, 0.1-30 nM radiopeptide, 60 min, room temperature, duplicate, non-specific with ~200-fold excess unlabeled peptide, mean ± SD
Description: as §1

[7] = tested on: MCF7 breast cancer cell line; test: In vitro tumor cell binding (saturation, Kd); design: species or system human; details: ~300,000 cells, 0.1-30 nM radiopeptide, 60 min, room temperature, duplicate, non-specific with ~200-fold excess unlabeled peptide, mean ± SD
Description: as §1

MCF7 tumor xenografts = details: for tumor uptake: nude mice, mean ± SD
Description: as §3, §4
(§5) In general, for preclinical gamma camera imaging, each tumor-bearing mouse model was intravenously injected with ~200 μCi of ^99mTc-HER2 or ^99mTc-MUC1 peptide through the tail vein. Mouse static planar images were then acquired at 1 h after the radiotracer injection by a portable hand-held γ-camera equipped with CsI(Tl) scintillation detector, with intrinsic spatial resolution of 2.45 mm (IP guardian 2, Li-Tech, Italy).

SKBR3 cells = test: Cellular internalization (acid wash); type: cell-based, human; details: % of cell-surface bound radiopeptide internalized, acidic buffer pH 5.0, 10 min, 37 °C
Description: (§2) In order to differentiate between cell-surface bound and cellular internalized radioactivity, cell pellet was treated with 0.3 mL of acidic buffer (0.02 M sodium acetate in saline, pH 5.0) for 10 min at 37 °C at the end of the binding experiment, followed by centrifugation and washing with cold acidic buffer. The amount of cell surface-bound (acid-wash) and internalized (acid-resistant) radioactivity was determined by measuring the radioactivity of the supernatant and the cell-pellet, respectively, in a γ-counter.

MCF7 cells = test: Cellular internalization (acid wash); type: cell-based, human; details: % of cell-surface bound radiopeptide internalized, acidic buffer pH 5.0, 10 min, 37 °C
Description: as §2

T47D cells = test: Cellular internalization (acid wash); type: cell-based, human; details: % of cell-surface bound radiopeptide internalized, acidic buffer pH 5.0, 10 min, 37 °C
Description: as §2

[8] = Radio-HPLC retention time on C18 reversed-phase column; type: physicochemical; details: Econosphere C18 (10 μm, 250 × 4.6 mm), 0.1% TFA water/CH3CN, 5 to 95% B over 30 min, 1.1 mL/min, longer retention ascribed to higher lipophilicity
Description: The HPLC analysis and purification of the peptides were performed on a Shimadzu HPLC system using Econosphere C18 reversed-phase column (10 μm, 250 × 4.6 mm, Alltech, Deerfield, IL, USA). For HPLC experiments, a gradient solvent system of 0.1% (v/v) TFA in water (solvent A) and 0.1% (v/v) TFA in CH3CN (solvent B) at a flow rate of 1.1 mL/min was used. The HPLC gradient began with a solvent composition of 95% A and 5% B from 0 to 2.5 min followed by a linear gradient of 95% A and 5% B to 5% A and 95% B over 30 min. The gradient remained at this position for 3 min before switching back to 95% A and 5% B for another 7 min. The main peak of each radiolabeled peptide was isolated, and acetonitrile then evaporated under a stream of nitrogen gas. The HPLC system (Shimadzu Corporation, Kyoto, Japan) was equipped with a UV-VIS detector (Shimadzu Corporation, Kyoto, Japan) set at 220 nm, a Flow-count γ-radioactivity detection system (Bioscan Inc., Washington, DC, USA) and the Lauralite HPLC chromatogram analysis program (LabLogic Systems Ltd., Sheffield, UK). Radiochemical purity was estimated by evaluating radioactivity peaks eluted for each ^99mTc-labeled peptide from the HPLC column and calculating the area under the peak (ROI). The HPLC-purified compounds were reconstituted in sterile saline and used for in vitro and in vivo experiments.

[9] = design: species or system Balb/c mice; details: mouse, in vivo, iv
Description: Approval for the animal protocol used in this study was obtained from the Institutional Animal Care and Use Committee. Animal studies were conducted according to the international regulations governing the safe and proper use of laboratory animals [48]. In vivo biodistribution studies were performed on healthy Balb/c mice (n = 3–5 in each group, body mass 19–22 g) at 1 and 4 h after i.v. injection of the HPLC-purified radiopeptide (100 μL, 10–15 μCi, total peptide dose ~10 ng) via the lateral tail vein as described previously [54]. Mice were euthanized by cervical dislocation at specified times, the selected tissues/organs were removed, and radioactivity was measured in a γ-counter. Uptake of radioactivity in the tissues and organs was expressed as the percent injected dose per gram (% ID/g) of tissue/organ, which was calculated by comparison with standard solutions representing 10% of the injected dose per animal. For the clearance studies, radioactivity in the urine with bladder is expressed as the percent of the injected dose per organ (% ID/organ).

[10] = type: physicochemical
From the text: Table 1 Characterization of ^99mTc-HER2 and ^99mTc-MUC1 peptides. | column: Log P (Octanol/Saline)

[11] = tested on: HER2-positive SKBR3 tumor xenografts; details: for tumor uptake: nude mice, n = 3-5, mean ± SD
Description: as §3, §4, §5

p185HER2/neu = details: binding to p185HER2/neu; ref [22],[23],[24]; cited from earlier work
From the text: AHNP peptide was able to disable HER2 tyrosine kinases in vitro and in vivo similar to the monoclonal antibody from which it was derived. […] It has been shown that AHNP diminished the early tyrosine phosphorylation of p185HER2/neu, and inhibited proliferation of p185HER2/neu overexpressing tumor cells in ...

[12] = MCF7 xenografts, 1 h p.i., unblocked

Substance: KCCYSL [literature values for chelator-derivatized, radiolabeled forms]
- tumor uptake [1]: below 1 % ID/g

Substance: 99mTc-HER2 hybrid peptide (Acetyl-Gly-Gly-Cys-ALA-Lys-Ile-Phe-Gly-Ser-Leu-Ala-Phe-Leu-Lys-Cys-Cys-Tyr-Ser-Leu-CONH2)
- Kd [2]: 158 nM
- Kd [3]: 169 nM

Substance: FCDGFYACYADVGGG [AHNP, anti-HER2/neu peptidomimetic designed from heavy-chain CDR3 loop of trastuzumab]
- Kd (p185HER2/neu): 150 nM

More lines, main results first:

- HPLC Retention Time [8]: 20.0 min
- radioactivity found in the urine [9]: up to 40.0 ± 5.10 % ID
- Log P (Octanol/Saline) [10]: 1.38 ± 0.06
- hepatobiliary excretion (liver + intestines) ([11]; mouse, in vivo): below 15 % ID
- kidney accumulation and retention ([11]; mouse, in vivo): up to 10 % ID/g
- radioactivity excreted in the urine ([11]; mouse, in vivo): up to 41 % ID
Substance: Acetyl-Gly^19-Gly^18-Cys^17-ALA^16-Lys^15-Ile^14-Phe^13-Gly^12-Ser^11-Leu^10-Ala^9-Phe^8-Leu^7-Lys^6-Cys^5-Cys^4-Tyr^3-Ser^2-Leu^1-CONH2 [^99mTc-HER2]
- tumor uptake ([4]; 1 h p.i.): 0.66 ± 0.13 % ID/g
- tumor uptake ([4]; 4 h p.i.): 0.31 ± 0.10 % ID/g
- tumor uptake (T47D tumor xenografts; T47D xenografts, 1 h p.i.): 1.25 ± 0.32 % ID/g
- tumor uptake (T47D tumor xenografts; T47D xenografts, 4 h p.i.): 0.80 ± 0.17 % ID/g
- Kd ([5]; SKBR3, ~300,000 cells, 0.1-30 nM radiopeptide, 60 min, room temperature, duplicate, non-specific with ~200-fold excess unlabeled peptide, mean ± SD): 50 ± 14.2 nM
- binding affinity higher for SKBR3 cells than MCF7 and T47D cell lines ([5]; ratio of Kd values): more than 3 fold
- Kd [6]: 169 ± 22.3 nM
- Kd [7]: 158 ± 24.6 nM
- tumor uptake (MCF7 tumor xenografts; [12]): 1.33 ± 0.41 % ID/g
- tumor uptake (MCF7 tumor xenografts; MCF7 xenografts, 4 h p.i.): 0.91 ± 0.22 % ID/g
- % Internalization (SKBR3 cells): 19.90 ± 5.35%
- % Internalization (MCF7 cells): 12.16 ± 3.20%
- % Internalization (T47D cells): 11.85 ± 2.83%
- tumor-to-blood ratio ([11]; SKBR3 xenografts, 1 h p.i.): 1.54
- tumor-to-muscle ratio ([11]; SKBR3 xenografts, 1 h p.i.): 9.37
- tumor-to-blood ratio ([11]; SKBR3 xenografts, 4 h p.i.): 1.34
- tumor-to-muscle ratio ([11]; SKBR3 xenografts, 4 h p.i.): 8.71
- washout from the tumors ([11]; SKBR3 xenografts, over 4 h): 57%
- tumor uptake, blocked ([11]; SKBR3 xenografts, 100 μg of HER2 peptide 30 min before injection of radiopeptide): 1.07 ± 0.24 % ID/g
- reduction of tumor uptake by blocking dose ([11]; SKBR3 xenografts, 100 μg of HER2 peptide 30 min before, P = 0.02): approximately 62%
- tumor uptake ([11]; SKBR3 xenografts, 1 h p.i., unblocked): 2.81 ± 0.79 % ID/g
- tumor uptake ([11]; SKBR3 xenografts, 4 h p.i.): 1.22 ± 0.25 % ID/g
- gamma camera imaging of tumor ([11]; nude mouse, SKBR3 xenografts, 1 h p.i., ~200 μCi i.v.): detectable in the image

- accumulation in the kidneys (T47D tumor xenografts; mouse, in vivo): 2.26 ± 0.36 % ID/g
- cleared from the kidneys (T47D tumor xenografts; mouse, in vivo): 48%
- hepatobiliary excretion (T47D tumor xenografts; mouse, in vivo): below 13 % ID
- initial accumulation in the kidneys (T47D tumor xenografts; mouse, in vivo): 4.35 ± 1.0 % ID/g
- radioactivity remaining in the blood circulation (T47D tumor xenografts; mouse, in vivo): 0.30 ± 0.07 % ID/g
- hepatobiliary excretion (liver + intestines) (MCF7 tumor xenografts; mouse, in vivo): below 13 % ID
- radioactivity excreted in the urine (MCF7 tumor xenografts; mouse, in vivo): up to 49 % ID
- HPLC Retention Time [8]: 14.10 min
- radioactivity found in the urine [9]: up to 47.0 ± 6.28 % ID
- Log P (Octanol/Saline) [10]: −2.22 ± 0.12
Substance: Ac-GGCEPDTRP-NH2 [^99mTc-MUC1]
- tumor uptake ([4]; 1 h p.i.): 0.64 ± 0.13 % ID/g
- tumor uptake ([4]; 4 h p.i.): 0.41 ± 0.10 % ID/g
- tumor-to-blood ratio (T47D tumor xenografts; T47D xenografts, 1 h p.i.): 3.27
- tumor-to-muscle ratio (T47D tumor xenografts; T47D xenografts, 1 h p.i.): 12.62
- tumor-to-muscle ratio (T47D tumor xenografts; T47D xenografts, 4 h p.i.): 11.40
- tumor uptake (T47D tumor xenografts; T47D xenografts, 1 h p.i.): 2.65 ± 0.54 % ID/g
- tumor uptake (T47D tumor xenografts; T47D xenografts, 4 h p.i.): 1.14 ± 0.21 % ID/g
- Kd [6]: 3.48 ± 0.84 nM
- binding affinity higher to T47D cell line compared to MCF7 cell line ([6]; ratio of Kd values): 3 fold
- Kd [7]: 10.3 ± 1.55 nM
- tumor-to-blood ratio (MCF7 tumor xenografts; MCF7 xenografts, 1 h p.i.): 2.39
- tumor-to-muscle ratio (MCF7 tumor xenografts; MCF7 xenografts, 1 h p.i.): 18.47
- tumor-to-blood ratio (MCF7 tumor xenografts; MCF7 xenografts, 4 h p.i.): 1.09
- tumor-to-muscle ratio (MCF7 tumor xenografts; MCF7 xenografts, 4 h p.i.): 11.20
- washout from the tumors (MCF7 tumor xenografts; MCF7 xenografts, over 4 h): 60%
- tumor uptake, blocked (MCF7 tumor xenografts; MUC1-positive (MCF7) xenografts, 100 μg of unlabeled MUC1 peptide 30 min before injection of radiopeptide): 1.05 ± 0.21 % ID/g
- reduction of tumor uptake by blocking dose (MCF7 tumor xenografts; MUC1-positive (MCF7) xenografts, 100 μg unlabeled MUC1 peptide 30 min before, P = 0.02): approximately 62%
- tumor uptake (MCF7 tumor xenografts; [12]): 2.77 ± 0.63 % ID/g
- tumor uptake (MCF7 tumor xenografts; MCF7 xenografts, 4 h p.i.): 1.12 ± 0.30 % ID/g
- gamma camera imaging of tumor (MCF7 tumor xenografts; nude mouse, MCF7 xenograft, 1 h p.i., ~200 μCi i.v.): detectable in the image
- % Internalization (MCF7 cells): 18.92 ± 2.16%
- % Internalization (T47D cells): 21.11 ± 2.95%
